# Laboratory results from US20220257557A1, “PHARMACEUTICAL COMPOSITION FOR PREVENTING OR TREATING NEUROLOGICAL DISEASES” (GLACEUM INC., priority 2019, published 2022).
# How the values were obtained:
# SH-SY5Y cells [1] = assay: Cell death from MPP+ mitochondrial damage, MTT cell viability; type: cell-based, Human; settings: 1 mM MPP+ 24 h, then 0.0001-1 μM compound 24 h, FIG. 2
# Experimental: (§1) Human neuronal SH-SY5Y cells were cultured in a 1:1 DMEM/F12 medium containing 10% FBS (fetal bovine serum) at 37° C. under 5% carbon dioxide and 95% air. The cultured cells were transferred to a 96-well cell culture plate at a density of 2*10^4 cells/well and cultured for 24 hours. Thereafter, after replacement with serum-restricted medium (1:1 DMEM/F12 medium containing 0.5% FBS), the cells were cultured for 16 hours. Then, the cultured cells were treated with 1 mM MPP+ (1-methyl-4-phenylpyridinium) and cultured for 24 hours, thus inducing mitochondrial dysfunction in the cells. […]
# Each of the cultures obtained in Experimental Example 3-1 was treated with 0.2 mg/ml of 3-(4,5-dimethylthiazol-2-yl)-2,5-diphenyl-tetrazolium bromide (MTT; Sigma-Aldrich) and cultured for 4 hours. The MTT formazan precipitate formed by the viable cells was dissolved in 100 μl of 0.04N hydrochloric acid/isopropanol, and the absorbance at 540 nm was measured using an ELISA microplate reader (Molecular Devices).
# The absorbances of controls were measured in the same manner as the above-described method, except for using a sample to which DMSO was added (normal control) instead of MMP+ and the compound of Formula III-1 and a sample to which the compound of Formula III-1 was not added (negative control).
# The cell viability percentage was calculated from the absorbance.
# SH-SY5Y cells [2] = assay: Mitochondrial reactive oxygen species (MitoSOX Red) after MPP+; type: cell-based, Human; settings: 1 mM MPP+ 24 h, then 0.0001-1 μM compound 24 h, FIG. 5
# Experimental: as §1
# The level of reactive oxygen species generated in mitochondria was measured using a reduced fluorescent material called MitoSOX™ Red reagent.
# Specifically, the culture obtained in Experimental Example 3-1 was treated with 50 μg of MitoSOX Red dissolved in 13 μl DMSO and was incubated at 37° C. for 1 hour. […] Then, the fluorescence intensity at an excitation wavelength of 510 nm and an emission wavelength of 595 nm was measured with a fluorescence analyzer to determine the level of reactive oxygen species generated in the mitochondria. […]
# The concentration of MitoSOX Red determined from the fluorescence intensity was expressed as a percentage of the normal control.
# BV2 cells = assay: NO and PGE2 production after LPS; type: cell-based; settings: 3 h pretreatment (Table 3 amounts), LPS 1 μg/ml 24 h
# Summary of the method: (§2)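 RAW264.7 or BV2 cells (5×10^5 cells/well) in DMEM with 10% FBS were pretreated with compound, then stimulated with 1 μg/ml LPS for 24 h. iNOS and COX-2 expression by Western blot; NO and PGE2 production measured. Compound toxicity checked by MTT.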
# RAW264.7 cells = assay: NO and PGE2 production after LPS; type: cell-based; settings: 3 h pretreatment (Table 3 amounts), LPS 1 μg/ml 24 h
# Summary of the method: as §2
structure (smiles),measurement,setting,value
"CCOc1ccc(C2COc3c(ccc4c3CCC(C)(C)O4)C2)c(O)c1 (stereo not drawn) [Formula III-1, 2-(8,8-dimethyl-2,3,4,8,9,10-hexahydropyrano[2,3-f]chromen-3-yl)-5-ethoxyphenol]",function of mitochondria damaged by MPP+ (cell viability percentage),SH-SY5Y cells [1],restored
same,level of reactive oxygen species generated in the mitochondria (Mito-SOX),SH-SY5Y cells [2],decreased
same,production of NO,BV2 cells,concentration-dependently decreased
same,production of PGE2,BV2 cells,concentration-dependently decreased
same,production of NO,RAW264.7 cells,concentration-dependently decreased
same,production of PGE2,RAW264.7 cells,concentration-dependently decreased
